Measurements reported in patent US20230173135A1, “PROCESS TO COAT A MEDICAL DEVICE SURFACE WITH PEPTIDE-BASED NANOPARTICLES” (priority 2020, published 2023).

Assays:
S.aureus = format: cell-based
Experimental: (§1) Bacterial resistance assay. Commercial available Acticoat® dressing from Smith & Nephew was used to study the development of bacterial resistance against Ag. Acticoat® (1 cm^2 area) was placed in water (1 mL) and kept at room temperature for 24 h in order to promote leaching of Ag ions. ICP-MS analysis of leached solution was done to quantify the amount of Ag ions. The leached Acticoat® solution (Ag^+,0.06 ug/mL; sub-minimum inhibitory concentration, sub-MIC) was used to incubate with E.coli or S.aureus suspensions (10^5 CFU/mL) for 20 h in 10% human serum (HS; v/v in PBS). Then, for antimicrobial test, 10^5 CFU/mL of bacteria from passage 1 were incubated with 0.1 ug/mL (minimum inhibitory concentration, MIC) of Acticoat® solution in 10% human serum (HS) for 6 h followed by serial dilution and plating. Plates were incubated at 37° C. for 24 h. The visible bacteria grown on plates were counted. […]
(§2) Next, the inventors evaluated whether LL37NPs induced bacterial resistance (FIG. 5). […] Acticoat® dressing was incubated in PBS for 1, 3 and 5 days followed by the quantification of silver ions using ICP-MS analysis (FIG. 11C). […]
(§3) (A) Schematic diagram showing experimental procedures being used for bacterial resistance assay. […] ICP-MS analysis was performed to quantify the amount of Ag. […]

[1] = tested on: Human keratinocyte cell line (HaCaT); assay: Biocompatibility: keratinocytes cultured on films, ATP (CellTiter-Glo) assay; format: cell-based; details: 4 and 24 h; cells on films or with soluble peptide (20 µg/mL)
Experimental: Cell Culture. Human dermal fibroblast cells (NDHF) (Lonza) were cultured with Dulbecco’s modified eagle’s medium (DMEM) (Sigma) supplemented with 10% (v/v) of fetal bovine serum (Gibco, Grand Island, NY, USA) and 1% (v/v) penicillin/streptomycin (Lonza). NDHF cells under passage number ten were used in all experiments. Human keratinocyte cell line (HaCaT cell line, CLS, Eppelheim, Germany) was cultured as recommended by the vendor. Briefly, HaCaT cells were cultivated using DMEM supplemented with 1% (v/v) penicillin and streptomycin (Invitrogen) and 10% (v/v) fetal bovine serum (FBS, Invitrogen) until 90% of confluence. For passage, HaCat cells were initially trypsinized and then scraped. The cells were sub-cultured at a ratio of 1:3 until achieving the number of cells required for the experiment.
Biocompatibility study. Keratinocytes (2×10^4 cells) were cultured on top of PU-Adhesive-LL37NP, PU-Adhesive or PU films and cultured for 4 and 24 h. […] Cell viability was measured using ATP assay. […]
In vitro cytotoxicity of PU-adhesive-LL37NP films. […] To evaluate the cytotoxicity of films, keratinocytes were cultured on the top of PU-adhesive-LL37NP, PU-adhesive and PU films for 4 and 24 h and then cell viability was evaluated by an ATP assay (FIG. 12A). […]

E.coli = format: cell-based
Experimental: as §1, §2, §3

Compound	MIC (P.aeruginosa)	MIC (S.aureus; free peptide)	keratinocyte metabolism / cytotoxicity (ATP production) [1]	MIC (E.coli; free peptide)	time to induce resistance (S.aureus; serial passages at sub-MIC)	time to induce resistance (E.coli; serial passages at sub-MIC)
CC[C@H](C)[C@H](NC(=O)[C@H](CCCCN)NC(=O)[C@H](CCC(=O)O)NC(=O)[C@H](CCCCN)NC(=O)[C@H](CO)NC(=O)[C@H](CCCCN)NC(=O)[C@H](CCCNC(=N)N)NC(=O)[C@H](Cc1ccccc1)NC(=O)[C@H](Cc1ccccc1)NC(=O)[C@H](CC(=O)O)NC(=O)CNC(=O)[C@H](CC(C)C)NC(=O)[C@@H](N)CC(C)C)C(=O)NCC(=O)N[C@@H](CCCCN)C(=O)N[C@@H](CCC(=O)O)C(=O)N[C@@H](Cc1ccccc1)C(=O)N[C@@H](CCCCN)C(=O)N[C@@H](CCCNC(=N)N)C(=O)N[C@H](C(=O)N[C@H](C(=O)N[C@@H](CCC(N)=O)C(=O)N[C@@H](CCCNC(=N)N)C(=O)N[C@H](C(=O)N[C@@H](CCCCN)C(=O)N[C@@H](CC(=O)O)C(=O)N[C@@H](Cc1ccccc1)C(=O)N[C@@H](CC(C)C)C(=O)N[C@@H](CCCNC(=N)N)C(=O)N[C@@H](CC(N)=O)C(=O)N[C@@H](CC(C)C)C(=O)N[C@H](C(=O)N1CCC[C@H]1C(=O)N[C@@H](CCCNC(=N)N)C(=O)N[C@H](C(=O)N[C@@H](CCC(=O)O)C(=O)N[C@@H](CO)C(=O)N[C@@H](CS)C(=O)O)[C@@H](C)O)C(C)C)[C@@H](C)CC)C(C)C)[C@@H](C)CC [LL37 peptide]	up to 15 µg/mL	up to 15 µg/mL	No statistic difference in keratinocyte metabolism	up to 15 µg/mL		
O=C(N[C@H](CO)[C@H](O)c1ccc([N+](=O)[O-])cc1)C(Cl)Cl [chloramphenicol]					≤ 3 days	≤ 3 days
